Assay results as given in ChEMBL document CHEMBL3045195, “Comparison of the activity of non-steroidal ecdysone agonists between dipteran and lepidopteran insects, using cell-based EcR reporter assays” (Pest Manag Sci, 2010).
The source made the active and inactive calls. The rule behind the calls is not given here.

Columns and labels:
[1] = target: T1, Ecdysone receptor (Drosophila melanogaster) (UniProt P34021+P20153); test: Agonist activity at ecdysone receptor in Drosophila melanogaster S2 cells at 100 uM after 24 hr by luciferase reporter gene assay relative to 20-hydroxyecdysone; assay type: cell-based
Ecdysone receptor [2] = target: T2, Ecdysone receptor (Drosophila melanogaster, UniProt P20153+P34021); test: (§1) Agonist activity at ecdysone receptor in Drosophila melanogaster S2 cells after 24 hr by luciferase reporter gene assay; assay type: cell-based
T2 sequence (P34021 whole entry): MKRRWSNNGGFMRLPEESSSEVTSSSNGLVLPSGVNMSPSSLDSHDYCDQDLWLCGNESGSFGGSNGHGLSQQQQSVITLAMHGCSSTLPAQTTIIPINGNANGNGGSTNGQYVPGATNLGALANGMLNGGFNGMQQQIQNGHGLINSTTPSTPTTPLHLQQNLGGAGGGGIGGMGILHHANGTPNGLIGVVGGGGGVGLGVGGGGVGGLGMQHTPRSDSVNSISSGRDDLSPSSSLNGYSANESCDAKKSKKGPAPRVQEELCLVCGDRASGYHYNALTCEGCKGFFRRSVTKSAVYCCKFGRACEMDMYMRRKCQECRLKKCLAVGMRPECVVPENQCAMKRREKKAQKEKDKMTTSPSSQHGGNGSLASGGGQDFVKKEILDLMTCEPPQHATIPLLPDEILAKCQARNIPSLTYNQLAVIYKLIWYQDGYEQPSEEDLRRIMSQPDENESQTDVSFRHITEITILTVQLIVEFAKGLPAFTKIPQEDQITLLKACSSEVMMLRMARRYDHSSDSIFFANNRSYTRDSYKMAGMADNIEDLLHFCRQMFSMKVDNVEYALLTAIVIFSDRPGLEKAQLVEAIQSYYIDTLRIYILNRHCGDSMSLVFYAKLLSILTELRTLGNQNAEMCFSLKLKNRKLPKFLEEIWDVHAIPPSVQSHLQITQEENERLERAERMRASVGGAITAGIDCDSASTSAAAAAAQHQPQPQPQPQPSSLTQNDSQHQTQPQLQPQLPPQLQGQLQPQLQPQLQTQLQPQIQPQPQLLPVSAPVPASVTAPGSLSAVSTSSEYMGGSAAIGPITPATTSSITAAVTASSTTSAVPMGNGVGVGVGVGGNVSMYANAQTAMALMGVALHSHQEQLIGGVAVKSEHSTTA
T2 sequence (P20153 whole entry): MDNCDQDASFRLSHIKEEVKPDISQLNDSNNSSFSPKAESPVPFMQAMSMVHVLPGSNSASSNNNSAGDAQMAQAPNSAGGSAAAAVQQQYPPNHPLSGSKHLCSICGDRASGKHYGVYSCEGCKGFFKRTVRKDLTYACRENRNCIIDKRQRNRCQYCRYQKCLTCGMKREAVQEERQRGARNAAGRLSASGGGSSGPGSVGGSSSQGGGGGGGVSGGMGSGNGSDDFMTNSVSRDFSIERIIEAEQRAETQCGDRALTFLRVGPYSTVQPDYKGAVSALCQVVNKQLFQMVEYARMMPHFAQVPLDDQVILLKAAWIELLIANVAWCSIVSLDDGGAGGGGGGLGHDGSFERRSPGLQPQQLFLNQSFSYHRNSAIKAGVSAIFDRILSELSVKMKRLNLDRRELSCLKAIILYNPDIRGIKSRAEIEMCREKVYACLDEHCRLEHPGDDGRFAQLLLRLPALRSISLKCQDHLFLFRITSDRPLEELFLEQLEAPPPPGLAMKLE

Ecdysone receptor [3] = target: T2, Ecdysone receptor; test: Agonist activity at ecdysone receptor in Drosophila melanogaster B2 cells assessed as reduction in cell density
Ecdysone receptor [4] = target: T3, Ecdysone receptor (Bombyx mori, UniProt P49881); test: (§2) Agonist activity at ecdysone receptor in Bombyx mori Bm5 cells after 24 hr by luciferase reporter gene assay; assay type: cell-based
T3 sequence (P49881 whole entry): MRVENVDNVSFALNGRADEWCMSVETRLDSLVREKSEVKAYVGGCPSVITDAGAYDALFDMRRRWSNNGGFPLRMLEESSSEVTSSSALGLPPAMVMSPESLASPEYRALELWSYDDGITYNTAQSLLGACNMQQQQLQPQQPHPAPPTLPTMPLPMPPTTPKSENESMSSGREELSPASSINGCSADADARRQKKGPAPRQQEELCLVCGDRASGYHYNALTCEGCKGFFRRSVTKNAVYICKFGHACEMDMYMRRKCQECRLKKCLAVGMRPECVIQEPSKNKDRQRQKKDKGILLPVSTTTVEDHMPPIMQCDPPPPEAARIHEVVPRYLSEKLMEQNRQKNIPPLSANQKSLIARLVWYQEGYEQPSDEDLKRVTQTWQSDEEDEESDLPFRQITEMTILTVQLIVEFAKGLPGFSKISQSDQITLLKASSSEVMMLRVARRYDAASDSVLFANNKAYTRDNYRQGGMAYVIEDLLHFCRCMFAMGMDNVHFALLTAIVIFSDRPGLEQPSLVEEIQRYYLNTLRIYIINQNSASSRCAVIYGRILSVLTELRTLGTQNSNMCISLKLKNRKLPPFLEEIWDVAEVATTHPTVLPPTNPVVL

[5] = target: T1, Ecdysone receptor (Drosophila melanogaster); test: as §1; assay type: cell-based
[6] = target: T4, Ecdysone receptor (Bombyx mori) (UniProt P49881); test: as §2; assay type: cell-based
T4 sequence (whole entry): T3 sequence (P49881 whole entry)

[7] = target: T1, Ecdysone receptor (Drosophila melanogaster); test: Agonist activity at ecdysone receptor in Drosophila melanogaster S2 cells at 10 uM after 24 hr by luciferase reporter gene assay relative to 20-hydroxyecdysone; assay type: cell-based
Ecdysone receptor [8] = target: T2, Ecdysone receptor; test: Agonist activity at ecdysone receptor in Drosophila melanogaster Kc cells after 24 hr by luciferase reporter gene assay
[9] = target: Ecdysone receptor (Aedes aegypti) (UniProt P49880+Q9GSG8); test: Agonist activity at Aedes aegypti ecdysone receptor expressed in mammalian cells by reporter gene assay relative to control; assay type: cell-based
Ecdysone receptor [10] = target: T5, Ecdysone receptor (Aedes aegypti, UniProt P49880+Q9GSG8); test: Agonist activity at Aedes aegypti ecdysone receptor expressed in mammalian cells by reporter gene assay; assay type: cell-based
T5 sequence (P49880 whole entry): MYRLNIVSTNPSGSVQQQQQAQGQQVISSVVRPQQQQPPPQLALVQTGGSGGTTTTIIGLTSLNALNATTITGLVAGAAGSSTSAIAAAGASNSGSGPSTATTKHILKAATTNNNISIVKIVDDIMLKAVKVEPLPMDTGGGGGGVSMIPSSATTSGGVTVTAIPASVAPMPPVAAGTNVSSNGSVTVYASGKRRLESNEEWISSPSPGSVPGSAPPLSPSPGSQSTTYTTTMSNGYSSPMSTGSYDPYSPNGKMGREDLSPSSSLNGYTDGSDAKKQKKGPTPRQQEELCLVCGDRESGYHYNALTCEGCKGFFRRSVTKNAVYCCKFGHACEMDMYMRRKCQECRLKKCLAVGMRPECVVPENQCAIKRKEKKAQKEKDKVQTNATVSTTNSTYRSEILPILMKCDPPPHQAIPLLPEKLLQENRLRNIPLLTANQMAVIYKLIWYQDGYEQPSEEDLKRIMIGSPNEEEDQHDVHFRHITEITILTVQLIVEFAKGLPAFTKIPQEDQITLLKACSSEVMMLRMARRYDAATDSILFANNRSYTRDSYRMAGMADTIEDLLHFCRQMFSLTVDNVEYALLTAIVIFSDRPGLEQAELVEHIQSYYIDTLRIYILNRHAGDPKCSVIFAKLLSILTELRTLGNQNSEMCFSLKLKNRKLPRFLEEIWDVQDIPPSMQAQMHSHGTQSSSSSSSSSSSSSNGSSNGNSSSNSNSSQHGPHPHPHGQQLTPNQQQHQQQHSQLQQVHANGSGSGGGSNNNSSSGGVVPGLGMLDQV
T5 sequence (Q9GSG8 whole entry): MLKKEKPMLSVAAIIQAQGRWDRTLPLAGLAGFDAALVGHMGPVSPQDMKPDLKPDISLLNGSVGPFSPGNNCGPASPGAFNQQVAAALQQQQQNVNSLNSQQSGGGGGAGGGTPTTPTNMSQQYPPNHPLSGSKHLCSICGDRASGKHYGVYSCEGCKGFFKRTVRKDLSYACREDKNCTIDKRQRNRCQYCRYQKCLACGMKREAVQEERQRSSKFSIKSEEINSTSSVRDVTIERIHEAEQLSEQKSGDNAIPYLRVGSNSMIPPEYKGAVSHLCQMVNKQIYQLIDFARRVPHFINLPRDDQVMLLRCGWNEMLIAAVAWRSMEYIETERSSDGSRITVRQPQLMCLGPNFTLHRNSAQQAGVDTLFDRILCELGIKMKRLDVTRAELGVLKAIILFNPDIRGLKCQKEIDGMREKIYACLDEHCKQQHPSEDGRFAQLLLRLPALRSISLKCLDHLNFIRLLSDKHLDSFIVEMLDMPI

Row | Efficacy [1] [%] | EC50 (Ecdysone receptor [2]) [µM] | EC50 (Ecdysone receptor [3]) [µM] | EC50 (Ecdysone receptor [4]) [µM] | SMILES | further results
1 | 45 | 120 | 3.8 | 0.224 | Cc1ccccc1C(=O)N(NC(=O)c1ccccc1)C(C)(C)C | –
2 | 79 | 3.24 | 0.219 | 0.0186 | Cc1ccc(C(=O)NN(C(=O)c2ccccc2Cl)C(C)(C)C)cc1 | –
3 | 48 | 105 | 2.57 | 0.331 | CC(C)(C)N(NC(=O)c1ccccc1Cl)C(=O)c1ccccc1Cl | –
4 | – | – | – | – | Cc1ccc(NC2CC(C)N(C(=O)c3ccc(C(C)(C)C)cc3)c3ccc(C)cc32)cc1 (centres undefined) | pEC50 [5]: inactive; pEC50 [6]: inactive
5 | 44 | 120 | 3.8 | 0.525 | COc1ccccc1C(=O)N(NC(=O)c1ccccc1)C(C)(C)C | –
6 | 71 | 15.5 | 0.219 | 0.00575 | CCc1ccc(C(=O)NN(C(=O)c2ccccc2Cl)C(C)(C)C)cc1 | –
7 | – | – | – | – | CC(C)(C)N(NC(=O)c1ccc(-c2ccccc2)cc1)C(=O)c1ccccc1Cl | EC50 (Ecdysone receptor [8]): > 100 µM
8 | 55 | 81.3 | 0.794 | 0.17 | CC(C)(C)N(NC(=O)c1ccccc1)C(=O)c1ccccc1Br | –
9 | – | – | – | – | CC1CCc2ccccc2N1C(=O)c1ccc(Cl)cc1 (centres undefined) | pEC50 [5]: inactive; pEC50 [6]: inactive
10 | – | 8.51 | – | 0.0759 | CC(C)(C)N(NC(=O)c1ccccc1)C(=O)c1ccccc1Cl | Efficacy [7]: 57%
11 | – | – | – | – | Cc1ccc(N(C(=O)c2ccc(Cl)cc2)C2CC(C)N(C(=O)c3ccc(Cl)cc3)c3ccc(C)cc32)cc1 (centres undefined) | pEC50 [5]: inactive; pEC50 [6]: inactive

Row | SMILES | Efficacy [1] [%] | EC50 (Ecdysone receptor [2]) [µM] | EC50 (Ecdysone receptor [3]) [µM] | EC50 (Ecdysone receptor [4]) [µM] | further results
12 | CC(C)(C)N(NC(=O)c1cccc(Cl)c1)C(=O)c1ccccc1Cl | 80 | 16.6 | 1.2 | 0.155 | –
13 | CCc1ccc(C(=O)NC2(C(=O)c3cc(C)cc(C)c3)CCCCC2)cc1 | – | > 10 | – | – | Efficacy [7]: 4%
14 | CC1CC(Nc2ccc(F)cc2)c2cc(F)ccc2N1C(=O)c1ccc(Cl)cc1 (centres undefined) | 12 | > 100 | – | – | Efficacy [9]: 70%; EC50 (Ecdysone receptor [10]): 0.646 µM
